Laboratory results as given in US20100119599A1 (ARCHER PHARMACEUTICALS, INC., priority 2006, published 2010).
Where two headings read alike, the source gives them in different places.

What was measured:
[1] = tested on: Aβ1-42; assay: Measurement of Aβ1-42 in culture medium of 7W WT APP751 CHO cells by ELISA; assay type: cell-based, Chinese hamster; conditions: for activity at 5 µM: Cricetulus griseus, 5 μM test compound, CHO cells stably transfected with human APP751, culture medium, ELISA, control DMSO; for Aβ1-42 (% of control): CHO cells that overexpress APP751, zero = below the detection limit of the assay;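 as to Aβ1-42 (% of control): 5 µM test compound but RI-coded compounds at 10 µM for 24 hours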
[2] = tested on: Aβ1-40; assay: Measurement of Aβ1-40 in culture medium of 7W WT APP751 CHO cells by ELISA; assay type: cell-based, Chinese hamster; conditions: for activity at 5 µM: Cricetulus griseus, 5 μM test compound, CHO cells stably transfected with human APP751, culture medium, ELISA, control DMSO; for Aβ1-40 (% of control): CHO cells that overexpress APP751, zero = below the detection limit of the assay;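 as to all read-outs here: 5 µM test compound but RI-coded compounds at 10 µM for 24 hours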
[3] = Table 1, 0 = no detectable amount, read-out: Aβ1-42 (% of control)
[4] = Table 1, 0 = no detectable amount

SMILES | activity at 5 µM [1, 3] | activity at 5 µM [2, 4] | further results
COC(=O)C1=C(C)NC2=C(C(=O)CC(c3cccs3)C2)C1c1ccc(C)s1 (stereo not drawn) [ST052308, methyl 2-methyl-4-(5-methyl(2-thienyl))-5-oxo-7-(2-thienyl)-1,4,6,7,8-pentahydroquinoline-3-carboxylate] | 74.2% | 48.4% | –
CC1(C)CC(=O)C2=C(C1)N(Cc1ccccc1)C(N)=C(C#N)C21CCOCC1 [ST014138, 2-amino-7,7-dimethyl-5-oxo-1-benzylspiro[1,4,6,7,8-pentahydroquinoline-4,4′-2′ H-3′,4,5′,6′-tetrahydropyran]-3-carbonitrile] | 65.3% | 64.1% | –
COC(=O)C1=C(N)n2c(s/c(=C/c3cccnc3)c2=O)=C(C(=O)OC)C1c1cccnc1 (stereo not drawn) [ST011768, methyl 5-amino-6-(methoxycarbonyl)-3-oxo-7-(3-pyridyl)-2-(3-pyridylmethylene)-4,7-dihydro-1,3-thiazolidino[3,2-a]pyridine-8-carboxylate] | – | – | Aβ1-42 (% of control) [1]: 97.83 % of control; Aβ1-40 (% of control) [2]: 42.71 % of control
CC1=C(C(=O)OCCc2ccccc2)C(c2cccc(Cl)c2Cl)C2=C(CCCC2=O)N1 (stereo not drawn) [ST015062, 2-phenylethyl 4-(2,3-dichlorophenyl)-2-methyl-5-oxo-1,4,6,7,8-pentahydroquinoline-3-carboxylate] | 20.8% | 30.6% | –
COC(=O)C1=CN(Cc2ccc3c(c2)OCO3)C=C(C(=O)OC)C1c1cccs1 [ST038112, methyl 1-(2H-benzo[3,4-d]1,3-dioxolen-5-ylmethyl)-5-(methoxycarbonyl)-4-(2-thienyl)-1,4-dihydropyridine-3-carboxylate] | – | – | Aβ1-42 (% of control) [1]: 99.52 % of control; Aβ1-40 (% of control) [2]: 47.7 % of control
CC1=C(C(=O)Nc2ccccc2)C(c2cccs2)C(C#N)=C(SCC(=O)NCCc2ccccc2)N1 (stereo not drawn) [RI_27] | – | – | Aβ1-42 (% of control) [1]: 26.5 % of control; Aβ1-40 (% of control) [2]: 34.4 % of control
CC1=C(C(=O)Nc2ccccc2)C(c2cccs2)C(C#N)=C(S)N1 (stereo not drawn) [RI_28] | – | – | Aβ1-42 (% of control) [1]: 68.5 % of control; Aβ1-40 (% of control) [2]: 77.1 % of control
CC1=C(C(=O)OCCc2ccccc2)C(c2ccc(C(F)(F)F)cc2)C2=C(CCCC2=O)N1 (stereo not drawn) [ST052320, 2-phenylethyl 2-methyl-5-oxo-4-[4-(trifluoromethyl)phenyl]-1,4,6,7,8-pentahydroquinoline-3-carboxylate] | 0% | 9.44% | –
N#CC1=C(N)N(c2sc3c(c2C#N)CCCC3)C2=C(CCC2)C1(C(F)(F)F)C(F)(F)F [ST044920, 2-[2-amino-4,4-bis(trifluoromethyl)-3-cyano-1,4,5,6,7-pentahydrocyclopenta[1,2-b]pyridinyl]-4,5,6,7-tetrahydrobenzo[b]thiophene-3-carbonitrile] | – | – | activity at 5 µM ([1]; Table 3, read-out: Aβ-42 (% of control)): 48.2%; activity at 5 µM ([2]; Table 3): 76.9%
COc1ccc(COC(=O)C2=C(C)NC3=C(C(=O)CCC3)C2c2cccs2)cc1 (stereo not drawn) [ST052371, (4-methoxyphenyl)methyl 2-methyl-5-oxo-4-(2-thienyl)-1,4,6,7,8-pentahydroquinoline-3-carboxylate] | 92.5% | 59.8% | –
CCOC(=O)C1=C(C)NC2=C(C(=O)CC(C)(C)C2)C1c1ccc(Cl)cc1Cl (stereo not drawn) [ST020008, ethyl 4-(2,4-dichlorophenyl)-2,7,7-trimethyl-5-oxo-1,4,6,7,8-pentahydroquinoline-3-carboxylate] | 95.7% | 61.7% | –
CCCCOC(=O)C1=C(C)NC2=C(C(=O)CCC2)C1c1cccc(Cl)c1 (stereo not drawn) [ST013428, butyl 4-(3-chlorophenyl)-2-methyl-5-oxo-1,4,6,7,8-pentahydroquinoline-3-carboxylate] | 40.9% | 25.1% | –
CCOC(=O)C1=CN(c2cc(C)ccc2C)C=C(C(=O)OCC)C1c1ccccc1OCC [ST052488, ethyl 1-(2,5-dimethylphenyl)-5-(ethoxycarbonyl)-4-(2-ethoxyphenyl)-1,4-dihydropyridine-3-carboxylate] | – | – | Aβ1-42 (% of control) [1]: 57.75 % of control; Aβ1-40 (% of control) [2]: 60.3 % of control
CC1=C(C(=O)OCCOc2ccccc2)C(c2ccncc2)C2=C(CC(c3ccccc3)CC2=O)N1 (stereo not drawn) [ST017084, 2-phenoxyethyl 2-methyl-5-oxo-7-phenyl-4-(4-pyridyl)-1,4,6,7,8-pentahydroquinoline-3-carboxylate] | 84.7% | 54.3% | –
CCOC(=O)C1=C(C)NC2=C(C(=O)CCC2)C1c1cccc(F)c1 (stereo not drawn) [ST013162, ethyl 4-(3-fluorophenyl)-2-methyl-5-oxo-1,4,6,7,8-pentahydroquinoline-3-carboxylate] | 36.3% | 33.4% | –
CC1=C(C(=O)Nc2ccccc2)C(c2cccs2)C(C#N)=C(SCC(=O)Nc2cccc(F)c2)N1 (stereo not drawn) [RI_13] | – | – | Aβ1-42 (% of control) [1]: 41.3 % of control; Aβ1-40 (% of control) [2]: 53.8 % of control
CCCCCOC(=O)C1=C(C)NC2=C(C(=O)CCC2)C1c1cc(Br)c(O)c(OC)c1 (stereo not drawn) [ST013170, pentyl 4-(3-bromo-4-hydroxy-5-methoxyphenyl)-2-methyl-5-oxo-1,4,6,7,8-pentahydroquinoline-3-carboxylate] | 49.8% | 62.8% | –
COCCOC(=O)C1=C(C)NC2=C(C(=O)CC(c3ccc(Cl)cc3)C2)C1c1ccc(Br)cc1 (stereo not drawn) [ST016960, 2-methoxyethyl 4-(4-bromophenyl)-7-(4-chlorophenyl)-2-methyl-5-oxo-1,4,6,7,8-pentahydroquinoline-3-carboxylate] | 76.4% | 51.5% | –
CC1=C(C(=O)Nc2ccccc2)C(c2cccs2)C(C#N)=C(SCC(=O)Nc2ccc(C(C)C)cc2)N1 (stereo not drawn) [RI_47] | – | – | Aβ1-42 (% of control) [1]: 28.1 % of control; Aβ1-40 (% of control) [2]: 30.5 % of control
CC1=C(C(=O)OC2CCCCC2)C(c2ccccc2Cl)C2=C(CC(C)(C)CC2=O)N1 (stereo not drawn) [ST013235, cyclohexyl 4-(2-chlorophenyl)-2,7,7-trimethyl-5-oxo-1,4,6,7,8-pentahydroquinoline-3-carboxylate] | 43% | 0% | –
CCSCCOC(=O)C1=C(C)NC2=C(C(=O)CCC2)C1c1ccccc1Br (stereo not drawn) [ST017199, 2-ethylthioethyl 4-(2-bromophenyl)-2-methyl-5-oxo-1,4,6,7,8-pentahydroquinoline-3-carboxylate] | 100% | 47.9% | –
CC1=C(C(=O)OCCc2ccccc2)C(c2ccccc2)C2=C(CC(C)(C)CC2=O)N1 (stereo not drawn) [ST015054, 2-phenylethyl 2,7,7-trimethyl-5-oxo-4-phenyl-1,4,6,7,8-pentahydroquinoline-3-carboxylate] | 44.2% | 29.9% | –
CC1=C(C(=O)OCCOc2ccccc2)C(c2ccc(C)cc2)C2=C(CC(C)(C)CC2=O)N1 (stereo not drawn) [ST015095, 2-phenoxyethyl 2,7,7-trimethyl-4-(4-methylphenyl)-5-oxo-1,4,6,7,8-pentahydroquinoline-3-carboxylate] | 0% | 59.7% | –
COC(=O)C1=C(C)NC2=C(C(=O)CC(C)(C)C2)C1c1ccc(C(F)(F)F)cc1 (stereo not drawn) [ST052359, methyl 2,7,7-trimethyl-5-oxo-4-[4-(trifluoromethyl)phenyl]-1,4,6,7,8-pentahydroquinoline-3-carboxylate] | 29.5% | 31% | –
